Drawing on article PMC10004634 (PLOS ONE, 2023), this text covers remaining binding for four compounds.

Like-named read-outs stand apart in the source and are kept apart here.

Among the targets are EGFR(E746-A750del) (Homo sapiens, UniProt P00533, DEL746-750); EGFR(T790M) (Homo sapiens, UniProt P00533, T790M); FLT3(ITD) (Homo sapiens, UniProt P36888, ITD); HCK (Homo sapiens, UniProt P08631); CAMKK1 (Homo sapiens, UniProt Q8N5S9); CSNK1G2 (Homo sapiens, UniProt P78368); FLT3(D835Y) (Homo sapiens, UniProt P36888, D835Y); MET (Homo sapiens, UniProt P08581); NLK (Homo sapiens, UniProt Q9UBE8); RET (Homo sapiens, UniProt P07949); SRPK2 (Homo sapiens, UniProt P78362); ERBB3 (Homo sapiens, UniProt P21860).

Holding throughout (test): biochemical
Design in all cases: KINOMEscan scanMAX competition binding, DNA-tagged kinases, qPCR read-out, percent control at 300 nM
For orientation: Real-time PCR tracks product formation cycle by cycle.

For assay [1], the target named is T1, ABL1(F317L)-phosphorylated (Homo sapiens, UniProt P00519, F317L).
T1 construct: phosphorylated

The target of a further assay is T2, ADCK3 (Homo sapiens, UniProt Q8NI60).
T2 construct: gene COQ8A

For assay [2], the target named is T3, ABL1(Y253F)-phosphorylated (Homo sapiens, UniProt P00519, Y253F).
T3 construct: phosphorylated

The target of another assay is T4, CDC2L1 (Homo sapiens, UniProt P21127).
T4 construct: gene CDK11B
T4 sequence (P21127 whole entry): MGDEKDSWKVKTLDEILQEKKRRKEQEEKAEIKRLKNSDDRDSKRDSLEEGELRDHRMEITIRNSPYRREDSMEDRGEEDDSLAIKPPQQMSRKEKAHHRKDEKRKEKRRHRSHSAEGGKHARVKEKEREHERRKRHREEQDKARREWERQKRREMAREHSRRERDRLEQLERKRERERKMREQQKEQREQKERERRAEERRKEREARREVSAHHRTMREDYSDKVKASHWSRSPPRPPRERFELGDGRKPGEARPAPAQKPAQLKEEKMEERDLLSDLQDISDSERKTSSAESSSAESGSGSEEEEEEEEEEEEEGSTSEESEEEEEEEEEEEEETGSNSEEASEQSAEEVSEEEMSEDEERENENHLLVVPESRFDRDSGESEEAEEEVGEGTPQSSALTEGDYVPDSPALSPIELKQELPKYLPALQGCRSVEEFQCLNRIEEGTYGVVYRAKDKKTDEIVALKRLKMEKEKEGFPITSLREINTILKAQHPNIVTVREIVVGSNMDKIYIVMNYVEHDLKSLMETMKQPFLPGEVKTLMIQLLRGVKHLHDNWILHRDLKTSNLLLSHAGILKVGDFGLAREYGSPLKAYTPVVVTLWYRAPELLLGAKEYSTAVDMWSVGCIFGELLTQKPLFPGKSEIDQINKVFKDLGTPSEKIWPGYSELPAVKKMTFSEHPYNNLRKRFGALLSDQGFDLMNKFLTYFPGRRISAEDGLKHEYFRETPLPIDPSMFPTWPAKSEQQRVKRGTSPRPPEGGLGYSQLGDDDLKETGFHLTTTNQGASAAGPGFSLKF

Another assay concerns the target T5, ERK2 (Homo sapiens, UniProt P28482).
T5 construct: gene MAPK1

A further assay addresses T6, JNK2 (Homo sapiens, UniProt P45984).
T6 construct: gene MAPK9

The target of a further assay is T7, MEK3 (Homo sapiens, UniProt P46734).
T7 construct: gene MAP2K3

The next assay addresses T8, PFTK1 (Homo sapiens, UniProt O94921).
T8 construct: gene CDK14

For another assay, the target named is T9, PIP5K2B (Homo sapiens, UniProt P78356).
T9 construct: gene PIP4K2B

The next assay deals with T10, PKAC-beta (Homo sapiens, UniProt P22694).
T10 construct: gene PRKACB

Assay [3] has as its target T11, TYK2(JH1domain-catalytic) (Homo sapiens, UniProt P29597).
T11 construct: JH1domain-catalytic

Where [4] appears, read: read-out: Percent control / Tirabrutinib.
Where [5] appears, read: read-out: Percent control / Acalabrutinib.
Setting [6] is: read-out: Percent control / Ibrutinib.
The mark [7] stands for this setting: read-out: Percent control / Zanubrutinib.

Sequence of EGFR(T790M) (P00533 whole entry T790M): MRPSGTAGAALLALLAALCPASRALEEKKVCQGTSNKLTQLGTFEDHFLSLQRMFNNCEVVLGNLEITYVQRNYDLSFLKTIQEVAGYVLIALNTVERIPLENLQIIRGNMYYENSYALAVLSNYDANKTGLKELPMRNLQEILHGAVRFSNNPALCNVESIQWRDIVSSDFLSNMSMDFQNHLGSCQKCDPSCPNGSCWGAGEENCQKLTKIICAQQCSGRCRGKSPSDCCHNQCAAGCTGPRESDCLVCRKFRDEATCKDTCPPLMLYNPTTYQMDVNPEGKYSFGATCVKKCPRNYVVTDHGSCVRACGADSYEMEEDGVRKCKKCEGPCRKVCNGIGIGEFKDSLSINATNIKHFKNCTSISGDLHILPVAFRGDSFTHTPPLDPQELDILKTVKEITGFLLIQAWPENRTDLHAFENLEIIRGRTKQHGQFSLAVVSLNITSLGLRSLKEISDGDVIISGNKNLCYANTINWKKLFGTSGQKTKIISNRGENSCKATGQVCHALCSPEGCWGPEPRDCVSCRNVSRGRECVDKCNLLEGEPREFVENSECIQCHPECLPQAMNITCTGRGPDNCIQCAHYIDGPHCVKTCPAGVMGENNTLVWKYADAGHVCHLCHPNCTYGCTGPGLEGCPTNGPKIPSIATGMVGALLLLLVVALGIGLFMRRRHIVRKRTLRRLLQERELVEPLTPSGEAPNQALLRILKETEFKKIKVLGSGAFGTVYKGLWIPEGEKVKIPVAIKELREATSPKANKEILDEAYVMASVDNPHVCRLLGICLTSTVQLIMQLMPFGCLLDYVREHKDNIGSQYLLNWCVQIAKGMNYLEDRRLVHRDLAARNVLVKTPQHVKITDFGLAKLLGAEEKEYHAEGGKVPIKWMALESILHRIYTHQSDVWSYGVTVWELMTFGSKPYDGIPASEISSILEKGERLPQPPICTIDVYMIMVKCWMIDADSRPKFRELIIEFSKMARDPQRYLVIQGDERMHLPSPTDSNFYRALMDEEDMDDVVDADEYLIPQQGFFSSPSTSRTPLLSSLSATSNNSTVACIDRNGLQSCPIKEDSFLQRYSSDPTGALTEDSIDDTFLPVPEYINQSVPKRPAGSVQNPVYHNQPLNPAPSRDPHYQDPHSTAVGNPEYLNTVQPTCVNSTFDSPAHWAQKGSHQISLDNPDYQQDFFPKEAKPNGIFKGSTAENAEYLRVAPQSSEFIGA
T5 sequence (P28482 whole entry): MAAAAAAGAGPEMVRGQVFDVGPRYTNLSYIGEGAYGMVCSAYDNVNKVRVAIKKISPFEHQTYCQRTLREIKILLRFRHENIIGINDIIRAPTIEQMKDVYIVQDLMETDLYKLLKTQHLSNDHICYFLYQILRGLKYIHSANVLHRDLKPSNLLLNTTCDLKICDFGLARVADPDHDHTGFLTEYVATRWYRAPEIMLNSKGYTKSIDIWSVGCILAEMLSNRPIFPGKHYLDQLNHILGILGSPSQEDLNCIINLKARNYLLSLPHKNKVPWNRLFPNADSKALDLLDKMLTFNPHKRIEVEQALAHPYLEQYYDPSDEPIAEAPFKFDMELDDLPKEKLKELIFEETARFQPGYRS
Sequence of CAMKK1 (Q8N5S9 whole entry): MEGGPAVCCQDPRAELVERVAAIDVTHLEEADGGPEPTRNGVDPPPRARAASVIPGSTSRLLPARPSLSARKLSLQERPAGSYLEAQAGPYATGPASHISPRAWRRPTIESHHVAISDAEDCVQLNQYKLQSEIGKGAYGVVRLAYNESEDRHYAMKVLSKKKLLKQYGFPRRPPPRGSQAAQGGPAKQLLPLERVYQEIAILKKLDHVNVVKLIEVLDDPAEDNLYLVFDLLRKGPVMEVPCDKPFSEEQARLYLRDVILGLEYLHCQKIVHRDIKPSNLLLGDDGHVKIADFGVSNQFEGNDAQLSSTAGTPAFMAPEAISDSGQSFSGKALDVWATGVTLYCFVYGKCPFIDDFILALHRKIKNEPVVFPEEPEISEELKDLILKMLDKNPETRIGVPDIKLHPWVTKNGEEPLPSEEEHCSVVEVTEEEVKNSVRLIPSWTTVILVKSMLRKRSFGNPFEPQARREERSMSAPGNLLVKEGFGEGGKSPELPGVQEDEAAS
Sequence of EGFR(E746-A750del) (P00533 with tags, fused parts or gaps DEL746-750): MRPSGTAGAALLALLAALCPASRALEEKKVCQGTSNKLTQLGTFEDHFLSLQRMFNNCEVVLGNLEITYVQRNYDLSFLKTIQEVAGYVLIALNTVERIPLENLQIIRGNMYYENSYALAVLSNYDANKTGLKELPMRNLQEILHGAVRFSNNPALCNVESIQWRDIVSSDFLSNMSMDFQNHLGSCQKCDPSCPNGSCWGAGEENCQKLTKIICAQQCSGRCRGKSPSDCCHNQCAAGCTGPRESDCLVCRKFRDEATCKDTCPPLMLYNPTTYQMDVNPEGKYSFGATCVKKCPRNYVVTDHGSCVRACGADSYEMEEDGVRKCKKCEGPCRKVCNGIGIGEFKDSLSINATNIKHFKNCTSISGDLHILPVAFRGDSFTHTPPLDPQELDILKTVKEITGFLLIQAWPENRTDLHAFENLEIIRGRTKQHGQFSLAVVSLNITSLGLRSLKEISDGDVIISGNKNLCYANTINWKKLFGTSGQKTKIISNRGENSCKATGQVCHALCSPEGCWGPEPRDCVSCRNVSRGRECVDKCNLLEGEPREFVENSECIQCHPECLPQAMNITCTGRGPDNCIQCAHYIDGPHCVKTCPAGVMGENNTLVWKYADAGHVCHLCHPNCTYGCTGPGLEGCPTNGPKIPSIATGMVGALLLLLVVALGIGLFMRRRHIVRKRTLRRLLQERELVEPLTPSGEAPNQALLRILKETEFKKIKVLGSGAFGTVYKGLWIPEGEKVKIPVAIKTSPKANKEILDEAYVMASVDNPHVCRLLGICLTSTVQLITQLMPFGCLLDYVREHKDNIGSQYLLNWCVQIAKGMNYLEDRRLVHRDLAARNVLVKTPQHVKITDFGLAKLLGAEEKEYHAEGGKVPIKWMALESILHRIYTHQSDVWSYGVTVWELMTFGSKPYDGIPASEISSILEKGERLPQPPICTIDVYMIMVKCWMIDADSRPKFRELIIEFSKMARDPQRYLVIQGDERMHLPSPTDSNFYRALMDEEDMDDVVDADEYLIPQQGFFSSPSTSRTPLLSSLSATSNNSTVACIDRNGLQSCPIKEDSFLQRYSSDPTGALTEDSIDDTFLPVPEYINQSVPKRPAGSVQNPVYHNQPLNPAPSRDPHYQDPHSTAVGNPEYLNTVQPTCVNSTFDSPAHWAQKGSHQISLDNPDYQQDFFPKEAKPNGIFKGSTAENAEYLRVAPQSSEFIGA
Sequence of SRPK2 (P78362 whole entry): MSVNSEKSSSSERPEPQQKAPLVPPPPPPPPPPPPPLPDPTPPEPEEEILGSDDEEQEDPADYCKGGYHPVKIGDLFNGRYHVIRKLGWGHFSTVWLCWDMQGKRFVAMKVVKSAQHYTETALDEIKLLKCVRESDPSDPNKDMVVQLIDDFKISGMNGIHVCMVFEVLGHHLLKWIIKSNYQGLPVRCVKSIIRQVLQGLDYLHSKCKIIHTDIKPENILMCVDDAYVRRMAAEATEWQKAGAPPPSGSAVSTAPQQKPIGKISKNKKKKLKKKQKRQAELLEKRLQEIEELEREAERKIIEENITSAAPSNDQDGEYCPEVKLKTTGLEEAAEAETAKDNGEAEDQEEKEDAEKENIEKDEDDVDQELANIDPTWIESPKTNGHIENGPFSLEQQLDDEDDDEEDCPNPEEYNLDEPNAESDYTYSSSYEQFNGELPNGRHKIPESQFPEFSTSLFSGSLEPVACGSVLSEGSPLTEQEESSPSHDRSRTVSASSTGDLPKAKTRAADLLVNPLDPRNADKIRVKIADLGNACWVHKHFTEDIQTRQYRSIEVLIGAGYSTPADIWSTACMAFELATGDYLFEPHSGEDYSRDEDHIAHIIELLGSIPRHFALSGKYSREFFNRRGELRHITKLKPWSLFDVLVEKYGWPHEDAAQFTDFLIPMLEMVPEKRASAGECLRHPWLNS

For `CC#CC(=O)N1CC[C@@H](n2c(=O)n(-c3ccc(Oc4ccccc4)cc3)c3c(N)ncnc32)C1` [Tirabrutinib], the remaining binding at 0.3 µM in [1] (setting [4]) was 57%; at ADCK3 (setting [4]), 95%; on EGFR(E746-A750del) (setting [4]) it was 100%; at EGFR(T790M) (setting [4]), 75%; at FLT3(ITD) (setting [4]), 82%; at HCK (setting [4]) it was 57%.

On to `CC#CC(=O)N1CCC[C@H]1c1nc(-c2ccc(C(=O)Nc3ccccn3)cc2)c2c(N)nccn12` [Acalabrutinib], for which the remaining binding at 0.3 µM in assay [1] (setting [5]) worked out at 81%; in [2] (setting [5]), 90%; at CAMKK1 (setting [5]), 92%; at CDC2L1 (setting [5]), 93%; on CSNK1G2 (setting [5]), 87%; at EGFR(E746-A750del) (setting [5]), 96%. Besides, the remaining binding at 0.3 µM on EGFR(T790M) (setting [5]) is 93%; at ERK2 (setting [5]), 96%; on FLT3(D835Y) (setting [5]), 82%; at FLT3(ITD) (setting [5]), 85%; on JNK2 (setting [5]), 95%; at MEK3 (setting [5]) it was 99%. Besides, the remaining binding at 0.3 µM at MET (setting [5]) worked out at 90%; on NLK (setting [5]) it was 78%; on PFTK1 (setting [5]), 89%; at PIP5K2B (setting [5]) it was 93%; on RET (setting [5]), 87%; on SRPK2 (setting [5]) it was 90%.

As to `C=CC(=O)N1CCC[C@@H](n2nc(-c3ccc(Oc4ccccc4)cc3)c3c(N)ncnc32)C1` [Ibrutinib], the remaining binding at 0.3 µM is 98% on ADCK3 (setting [6]); 1.2% at ERBB3 (setting [6]); 4.5% at HCK (setting [6]); 93% on MEK3 (setting [6]); 85% at PKAC-beta (setting [6]); 40% on RET (setting [6]). For the same compound, the remaining binding at 0.3 µM in assay [3] (setting [6]) came to 87%.

On to `C=CC(=O)N1CCC([C@@H]2CCNc3c(C(N)=O)c(-c4ccc(Oc5ccccc5)cc4)nn32)CC1` [Zanubrutinib], for which the remaining binding at 0.3 µM in [2] (setting [7]) was determined as 85%; on CAMKK1 (setting [7]), 87%; on CDC2L1 (setting [7]), 90%; on CSNK1G2 (setting [7]), 88%; on ERBB3 (setting [7]) it was 87%; at ERK2 (setting [7]), 100%. For the same compound, the remaining binding at 0.3 µM on FLT3(D835Y) (setting [7]) was 47%; on JNK2 (setting [7]), 100%; at MET (setting [7]), 96%; on NLK (setting [7]), 80%; on PFTK1 (setting [7]), 92%; at PIP5K2B (setting [7]), 88%. Further, the remaining binding at 0.3 µM at PKAC-beta (setting [7]) turned out to be 82%; on SRPK2 (setting [7]) it was 96%; in assay [3] (setting [7]), 82%.
